Results reported in patent US10781203B2, “Nontoxic compounds for the treatment and prevention of herpesvirus infections” (The Penn State Research Foundation, priority 2016, dated 2020).

What was measured:
[1] = test system: HCMV-infected cells; test: Western blot analysis of HCMV-infected cell lysates; format: cell-based, human; conditions: MOI=3, 10 μM
Description: Total cell lysates were prepared from uninfected or HCMV-infected cells (MOI=3) at the indicated time points by harvesting lystates in radioimmunoprecipitation assay buffer (1% NP-40, 1% sodium deoxycholate, 0.1% sodium dodecyl sulfate [SDS], 0.15 M NaCl, 10 mM sodium phosphate [pH 7.2], 2 mM EDTA, 50 mM NaF, 1 mM phenylmethylsulfonyl fluoride, […], 0.2 mM Na3VO4, 1 μg/ml leupeptin). After centrifugation, the supernatant was collected and stored at −80° C. The protein was quantified by a Bradford assay (Bio-Rad) and samples were analyzed by SDS-PAGE gel electrophoresis and immunoblotting on nitrocellulose or PVDF membrane blocked with 5% milk or 5% BSA in tris-buffered saline (0.1% tween). Antibody dilutions were in accordance with manufacturer's instructions.

[2] = target: T1, STX5 (Homo sapiens, UniProt Q13190); test: Immunofluorescence detection of STX5 localization; format: cell-based
T1 construct: immunofluorescence detection of STX5 in uninfected (Mock) and HCMV-infected cells (96 hpi) in the presence of DMSO control or Retro94; endogenous in cells; host or cells: uninfected (mock) or HCMV-infected cells
T1 sequence (Q13190 1-355): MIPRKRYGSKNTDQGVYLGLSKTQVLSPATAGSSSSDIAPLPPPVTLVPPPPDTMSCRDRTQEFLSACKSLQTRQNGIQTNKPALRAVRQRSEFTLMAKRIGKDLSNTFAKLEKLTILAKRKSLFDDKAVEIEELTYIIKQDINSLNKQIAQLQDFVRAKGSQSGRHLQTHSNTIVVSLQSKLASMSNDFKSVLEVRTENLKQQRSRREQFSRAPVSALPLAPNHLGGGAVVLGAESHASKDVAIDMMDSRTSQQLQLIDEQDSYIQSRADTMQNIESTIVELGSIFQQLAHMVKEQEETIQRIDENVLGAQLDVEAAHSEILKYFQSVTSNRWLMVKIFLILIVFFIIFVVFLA
Description: Coverslips or chamber slides containing either uninfected or HCMV-infected cells were washed in phosphate-buffered saline (PBS) and fixed in 2% paraformaldehyde for 15 min at room temperature. Cells were blocked in PBS containing 10% human serum, 0.5% Tween-20, and 5% glycine. 0.1% Triton-X 100 was added for permeabilization. Primary and secondary antibodies as specified in the antibody section were diluted in blocking buffer. Nuclei were stained with DAPI prior to mounting with ProLong Diamond Antifade Mountant (ThermoScientific). For live-cell experiments using the pp28-mCherry virus, cells were grown on glass bottom microwell dishes (MatTek Corporation) and nuclei were stained with NucBlue Live Cell Stain ReadyProbes reagent (ThermoScientific). All images were acquired using a C2+ Confocal Microscope System (Nikon). Images were processed using NIS elements software. Images shown are volume renderings of Z-stacks.

[3] = test system: HCMV; test: HCMV single-step growth curve / virus titer analysis (MOI=3); format: cell-based, Human cytomegalovirus (HCMV); conditions: for reduction in infectious virion production: MOI=3, titers at 96 hpi
Description: Infections were done at an MOI of 0.05 for multi-step growth curves and MOI 3 for single-step growth curves. Infections were done on NHDFs unless otherwise noted. Virus was incubated with cells for 2 hours before addition of fresh media. For growth curve analyses, virus was harvested at the indicated time-points for each experiment by scraping the cells into the medium, sonicating 10 times with 1 second pulses, vortexing for 15 seconds, and centrifuging at 13,000 rpm for 10 min. Supernatants were collected, aliquoted and flash-frozen in liquid nitrogen before storage at −80° C.
For MCMV growth curve analysis, samples were titrated on NIH 3T3 cells and titers were calculated using the 50% tissue culture infective dose method. Both HCMV virus stocks and samples for growth curves were titrated by serial dilutions on MRC5 cells and quantified by the immunological detection of immediate-early proteins as previously described (Britt W J. Human cytomegalovirus: propagation, quantification, and storage. Curr Protoc Microbiol. 2010; Chapter 14: Unit 14E.3). The numbers of stained nuclei were acquired on a Nikon Eclipse Ti Inverted microscope and fluorescent nuclei were quantified using the NIS Elements Software. Images of viral foci from infection of ARPE19 cells were also acquired on Eclipse Ti Inverted microscope. The number and size of foci were quantified using NIS Elements software.
^1H NMR spectra were recorded on a 500 MHz Bruker spectrometer (Billerica, Mass.) using tetramethylsilane (TMS) as the internal reference. The following abbreviations were used to designate chemical shift multiplicities: s=singlet, d=doublet, dd=double doublet, t=triplet, dt=doublet of triplet, m=multiplet. Mass Spec analysis was performed on 4000 Q trap hybrid triple quadrupole/linear ion trap instrument (Applied Biosystems/MDS Sciex) at the proteomic facility at Penn State Hershey Cancer Institute, Hershey, Pa. Thin-layer chromatography (TLC) was on aluminum-supported, precoated silica gel plates (EM Industries, Gibbstown, N.J.). 5-(2-methyl-3-thiazol-4-yl)-2-thiophencarboxaldehyde was purchased from MAYBRIDGE-Thermo Fisher (Cornwall, UK). All other starting materials were obtained from Aldrich Chemical Co. (Milwaukee, Wis.) and used without further purification. Retro94 was added to cells at 2 hpi at a concentration of 10 μM, unless otherwise indicated.

Cc1nc(-c2ccc(C3N(C)c4ccccc4C(=O)N3c3ccccc3)s2)cs1 (centres unmarked) [Retro94, 1-Methyl-2-(5-(2-methylthiazol-4-yl)thiophen-2-yl)-3phenyl-2,3-dihydroquinazolin-4(1H)-one]
STX5 protein level during infection [1]: did not reach the same level as observed in control-treated samples | steady state levels of immediate-early and late viral proteins ([1]; 24-96 hpi): not affected | STX5 localization ([2]; HCMV-infected cells, 96 hpi): dispersed throughout the cell and was not located to the cVAC ring | STX5 localization ([2]; uninfected cells): lost its Golgi-localization | IC50 ([3]; Human betaherpesvirus 5, added at 2 hpi, MOI 3, 96 hpi, read-out: IC50 (HCMV titers)): ~0.13 µM | reduction of production of infectious virions ([3]; MOI 3 pfu/cell, added two hours after infection, 10 μM): greater than two | reduction in infectious virion production ([3]; added at 2 hpi): two | reduction in infectious virion production ([3]; added at 24 hpi): 20 fold | reduction in infectious virion production ([3]; added at 48 hpi): 5 fold | reduction in infectious virion production ([3]; added at 72 hpi): two | dilution at which a significant inhibition in viral titers was first present ([3]; ten-fold dilutions added at 2 hpi, MOI 3, 96 hpi): 1 µM
